Laboratory results from patent US8685924B2, “Preventives/remedies for stress urinary incontinence and method of screening the same” (Takeda Pharmaceutical Company Limited, priority 2004, dated 2014).
“And” between values parts separate entries of the source, which are not always exact repeats. Identical values can stand only once.

Assays:
[1] = test system: urethane-anesthetized female rats; test: Leak point pressure by abdominal wall-electrically stimulating method, serotonin 5-HT receptor agonists (Example 3); assay type: in vivo, rat; details: for leak point pressure after drug administration / leak point pressure increase / leak point pressure before drug administration: i.v., mean ± SEM; for leak point pressure before drug administration: baseline; for effect on leak point pressure: intravenous administration
Description: SD female rats (body weight 180-350 g) were anesthetized with urethane (Wako Pure Chemical Industries, Ltd.), and the spinal cord was transected at T8-9 level to eliminate the reflex voiding. In addition, the nerve to the iliococcygeus muscle/pubococcygeus muscle on the one side was transected. During operation, halothane (Takeda Pharmaceutical Company Limited) anesthesia was added when necessary. A catheter (PE-90, Clay Adams) was inserted into the bladder and secured with a ligature, and the incised part of each of the abdominal muscle and skin was closed with sutures. The abdominal skin near the diaphragm was incised at two left and right positions to newly expose the abdominal muscle. An Evans Blue dye (Merck) solution was injected into the bladder, and the bladder volume was adjusted to 0.2-0.3 ml. The bladder catheter was connected to a pressure transducer, and the signals of the transducer were sent to a computer via an amplifier (blood pressure amplification unit AP-641G; NIHON KOHDEN) and an analog-to-digital converter (BIOPAC; MP100), and recorded on a hard disc. The data were analyzed on a computer using software (BIOPAC; AcqKnowledge). The exposed abdominal muscle was electrostimulated using an electrostimulator (SEN-3301; NIHON KODEN) and an isolator (SS-202J; NIHON KODEN), and the presence or absence of incontinence from the meatus urethra was observed. The electrostimulation was applied at a voltage of 2.5-50 V, duration of 0.5 milisec, and frequency 50 Hz for 1 sec, thereby gradually increasing the intravesical pressure. The peak intravesical pressure during stimulation of the abdominal wall was measured and, of the trials with observed incontinence, the lowest peak intravesical pressure was defined as the leak point pressure. Serotonin 5-HT receptor agonist, WAY-161503 (5-HT2C receptor agonist), WAY-163909 (5-HT2C receptor agonist), DOI (5-HT2A/2B/2C receptor agonist), mCPP (5-HT2B/2C receptor partial agonist), eltoprazine (5-HT1A/1B/2C receptor partial agonist), 8-OH-DPAT (5-HT1A receptor agonist), sumatryptan (5-HT1B/1D receptor agonist) and BW723C86 (5-HT2B receptor agonist) were intravenously administered, and the leak point pressure was compared before and after the administration. DOI, mCPP and eltoprazine were dissolved in saline, and other drugs were dissolved in DMA/PEG400 (1:1), and they were intravenously administered at 1 ml/kg and 0.5 mg/kg, respectively. Depending on the experiment, RS-102221 (serotonin 5-HT2C receptor antagonist) or SB221284 (serotonin 5-HT2B/2C receptor antagonist) was intravenously administered 5 min before WAY-161503 or WAY-163909 administration, and an antagonistic effect against the WAY-161503 or WAY-163909-induced increment of the leak point pressure was examined. RS-102221 and SB221284 were both dissolved in DMA/PEG400 (1:1) and intravenously administered at 0.5 ml/kg.

[2] = test system: urethane-anesthetized female rats; test: Leak point pressure by direct compressing of the bladder (Example 4); assay type: in vivo, rat; details: for leak point pressure after drug administration / leak point pressure increase / leak point pressure before drug administration: i.v., mean ± SEM; for leak point pressure after drug administration: 20 min later; for leak point pressure before drug administration: baseline; for effect on leak point pressure: intravenous administration
Description: SD female rats (body weight 180-350 g) were anesthetized with urethane (Wako Pure Chemical Industries, Ltd.), and halothane (Takeda Pharmaceutical Company Limited) anesthesia was added when necessary during operation.
The spinal cord was transected at T8-9 level to eliminate the reflex voiding. The lower abdomen was incised in the median line, a catheter for intravesical pressure measurement (PE-90, Clay Adams) was inserted into the bladder and secured with a ligature, and the intravesical pressure was measured via a pressure transducer. Urine was emptized in advance by bilaterally pressing the bladder with two swabs, and a 0.1% Evans blue (Merck) solution (0.4 mL) was injected into the bladder. The bladder was gradually compressed bilaterally with two swabs, and the intravesical pressure upon saline leakage from the urethral orifice was measured and defined as a leak point pressure. The measurement of the leak point pressure was repeated, and the average value of the final five stable measures was taken as the value before drug administration. Thereafter, the drug was intravenously administered, the leak point pressure was measured again 20 min later, and the value after the drug administration was determined. DOI, mCPP and eltoprazine were dissolved in saline, and other drugs were dissolved in DMA/PEG400 (1:1), and intravenously administered at 1 ml/kg and 0.5 mg/kg, respectively. Depending on the experiment, RS-102221 or SB221284 (showing serotonin 5-HT2C receptor antagonist activity) was administered, 5 min later, WAY-161503 or WAY-163909 was administered, leak point pressure was measured 10 min later, and a competitive assay with the action of WAY-161503 or WAY-163909 was performed. RS-102221 and SB221284 were both dissolved in DMA/PEG400 (1:1), and intravenously administered at 0.5 ml/kg.

CCCN(CCC)C1CCc2cccc(O)c2C1 (stereo not shown) [8OH-DPAT]
leak point pressure after drug administration ([1]; 0.3 mg/kg): 47.1 ± 9.4 cmH2O
leak point pressure increase ([1]; 0.3 mg/kg): −1.5 ± 1.2 cmH2O
leak point pressure before drug administration ([1]; dose group 0.3 mg/kg): 48.5 ± 9.6 cmH2O
effect on leak point pressure [1]: showed no effect

CC(N)Cc1c[nH]c2ccc(OCc3cccs3)cc12 (stereo not shown) [BW723C86]
leak point pressure after drug administration ([1]; 3 mg/kg): 48.9 ± 4.6 cmH2O
leak point pressure increase ([1]; 3 mg/kg): 2.5 ± 3.5 cmH2O
leak point pressure after drug administration ([1]; 10 mg/kg): 48.6 ± 3.2 cmH2O
leak point pressure increase ([1]; 10 mg/kg): −0.7 ± 3.9 cmH2O
leak point pressure before drug administration ([1]; dose group 3 mg/kg): 46.4 ± 5.6 cmH2O
leak point pressure before drug administration ([1]; dose group 10 mg/kg): 49.3 ± 6.5 cmH2O
effect on leak point pressure [1]: showed no effect

COc1cc(CC(C)N)c(OC)cc1I (stereo not shown) [DOI]
leak point pressure after drug administration ([2]; 0.01 mg/kg): 68.5 ± 5.7 cmH2O
leak point pressure increase ([2]; 0.01 mg/kg): 2.9 ± 2.0 cmH2O
leak point pressure after drug administration ([2]; 0.03 mg/kg): 71.1 ± 6.7 cmH2O
leak point pressure increase ([2]; 0.03 mg/kg): 6.2 ± 2.9 cmH2O
leak point pressure after drug administration ([2]; 0.1 mg/kg): 79.5 ± 2.6 cmH2O
leak point pressure increase ([2]; 0.1 mg/kg): 14.3 ± 2.8 cmH2O
leak point pressure after drug administration ([2]; 0.3 mg/kg): 85.7 ± 6.0 cmH2O
leak point pressure increase ([2]; 0.3 mg/kg): 18.7 ± 2.9 cmH2O
leak point pressure after drug administration ([2]; 1 mg/kg): 82.9 ± 3.6 cmH2O
leak point pressure increase ([2]; 1 mg/kg): 22.6 ± 2.5 cmH2O
leak point pressure before drug administration ([2]; dose group 0.01 mg/kg): 65.7 ± 6.3 cmH2O
leak point pressure before drug administration ([2]; dose group 0.03 mg/kg): 64.9 ± 5.4 cmH2O
leak point pressure before drug administration ([2]; dose group 0.1 mg/kg): 65.2 ± 3.6 cmH2O
leak point pressure before drug administration ([2]; dose group 0.3 mg/kg): 67.0 ± 4.3 cmH2O
leak point pressure before drug administration ([2]; dose group 1 mg/kg): 60.3 ± 3.5 cmH2O
effect on leak point pressure [2]: increased the leak point pressure significantly
leak point pressure after drug administration ([1]; 0.01 mg/kg): 39.7 ± 5.2 cmH2O
leak point pressure increase ([1]; 0.01 mg/kg): 3.2 ± 3.3 cmH2O
leak point pressure after drug administration ([1]; 0.03 mg/kg): 50.1 ± 7.1 cmH2O
leak point pressure increase ([1]; 0.03 mg/kg): 5.9 ± 1.9 cmH2O
leak point pressure after drug administration ([1]; 0.1 mg/kg): 63.2 ± 5.7 cmH2O
leak point pressure increase ([1]; 0.1 mg/kg): 18.7 ± 2.9 cmH2O
leak point pressure after drug administration ([1]; 0.3 mg/kg): 67.9 ± 11.5 cmH2O
leak point pressure increase ([1]; 0.3 mg/kg): 27.2 ± 3.9 cmH2O
leak point pressure before drug administration ([1]; dose group 0.01 mg/kg): 36.4 ± 7.6 cmH2O
leak point pressure before drug administration ([1]; dose group 0.03 mg/kg): 44.2 ± 7.2 cmH2O
leak point pressure before drug administration ([1]; dose group 0.1 mg/kg): 44.5 ± 5.8 cmH2O
leak point pressure before drug administration ([1]; dose group 0.3 mg/kg): 40.7 ± 8.7 cmH2O
effect on leak point pressure [1]: increased the leak point pressure significantly

c1cc2c3c(c1)[C@@H]1CCC[C@@H]1N3CCNC2 [WAY-163907]
leak point pressure after drug administration ([2]; 3 mg/kg): 57.0 ± 5.1 cmH2O
leak point pressure increase ([2]; 3 mg/kg): 1.9 ± 0.5 cmH2O
leak point pressure before drug administration ([2]; dose group 3 mg/kg): 55.1 ± 4.7 cmH2O
effect on leak point pressure [2]: showed no effect
leak point pressure after drug administration ([1]; 3 mg/kg): 47.4 ± 4.8 cmH2O
leak point pressure increase ([1]; 3 mg/kg): −4.8 ± 2.6 cmH2O
leak point pressure before drug administration ([1]; dose group 3 mg/kg): 52.2 ± 3.4 cmH2O
effect on leak point pressure [1]: showed no effect

c1cc2c(c(N3CCNCC3)c1)OCCO2 [eltoprazine]
leak point pressure after drug administration ([2]; 1 mg/kg): 76.7 ± 4.7 cmH2O
leak point pressure increase ([2]; 1 mg/kg): 8.0 ± 2.8 cmH2O
leak point pressure after drug administration ([2]; 3 mg/kg): 74.6 ± 2.3 cmH2O
leak point pressure increase ([2]; 3 mg/kg): 13.5 ± 1.0 cmH2O
leak point pressure before drug administration ([2]; dose group 1 mg/kg): 68.6 ± 6.1 cmH2O
leak point pressure before drug administration ([2]; dose group 3 mg/kg): 61.1 ± 2.4 cmH2O
effect on leak point pressure [2]: increased the leak point pressure significantly
leak point pressure after drug administration ([1]; 1 mg/kg): 55.2 ± 4.5 cmH2O
leak point pressure increase ([1]; 1 mg/kg): 6.1 ± 1.7 cmH2O
leak point pressure after drug administration ([1]; 3 mg/kg): 63.2 ± 5.6 cmH2O
leak point pressure increase ([1]; 3 mg/kg): 15.8 ± 3.1 cmH2O
leak point pressure before drug administration ([1]; dose group 1 mg/kg): 49.2 ± 5.2 cmH2O
leak point pressure before drug administration ([1]; dose group 3 mg/kg): 47.4 ± 5.5 cmH2O
effect on leak point pressure [1]: increased the leak point pressure significantly

Clc1cccc(N2CCNCC2)c1 [mCPP]
leak point pressure after drug administration ([2]; 0.003 mg/kg): 67.0 ± 5.3 cmH2O
leak point pressure increase ([2]; 0.003 mg/kg): 4.1 ± 2.1 cmH2O
leak point pressure after drug administration ([2]; 0.01 mg/kg): 69.3 ± 3.4 cmH2O
leak point pressure increase ([2]; 0.01 mg/kg): 6.3 ± 2.3 cmH2O
leak point pressure after drug administration ([2]; 0.03 mg/kg): 73.8 ± 7.1 cmH2O
leak point pressure increase ([2]; 0.03 mg/kg): 11.6 ± 3.1 cmH2O
leak point pressure after drug administration ([2]; 0.1 mg/kg): 76.7 ± 4.0 cmH2O
leak point pressure increase ([2]; 0.1 mg/kg): 13.6 ± 2.5 cmH2O
leak point pressure after drug administration ([2]; 0.3 mg/kg): 71.1 ± 7.1 cmH2O
leak point pressure increase ([2]; 0.3 mg/kg): 5.4 ± 2.2 cmH2O
leak point pressure before drug administration ([2]; dose group 0.003 mg/kg): 62.9 ± 5.0 cmH2O
leak point pressure before drug administration ([2]; dose group 0.01 mg/kg): 63.0 ± 2.7 cmH2O
leak point pressure before drug administration ([2]; dose group 0.03 mg/kg): 62.2 ± 4.4 cmH2O
leak point pressure before drug administration ([2]; dose group 0.1 mg/kg): 63.1 ± 3.9 cmH2O
leak point pressure before drug administration ([2]; dose group 0.3 mg/kg): 65.7 ± 7.8 cmH2O
effect on leak point pressure [2]: increased the leak point pressure significantly
leak point pressure after drug administration ([1]; 0.01 mg/kg): 49.1 ± 6.4 cmH2O
leak point pressure increase ([1]; 0.01 mg/kg): 2.8 ± 2.1 cmH2O
leak point pressure after drug administration ([1]; 0.03 mg/kg): 52.3 ± 4.3 cmH2O
leak point pressure increase ([1]; 0.03 mg/kg): 14.6 ± 2.7 cmH2O
leak point pressure after drug administration ([1]; 0.1 mg/kg): 59.7 ± 6.6 cmH2O
leak point pressure increase ([1]; 0.1 mg/kg): 13.2 ± 2.8 cmH2O
leak point pressure before drug administration ([1]; dose group 0.01 mg/kg): 46.3 ± 5.8 cmH2O
leak point pressure before drug administration ([1]; dose group 0.03 mg/kg): 37.7 ± 4.0 cmH2O
leak point pressure before drug administration ([1]; dose group 0.1 mg/kg): 46.5 ± 6.1 cmH2O
effect on leak point pressure [1]: increased the leak point pressure significantly

CNS(=O)(=O)Cc1ccc2[nH]cc(CCN(C)C)c2c1 [sumatryptan]
leak point pressure after drug administration ([1]; 1 mg/kg): 42.2 ± 2.0 cmH2O and 44.9 ± 9.1 cmH2O
leak point pressure after drug administration ([1]; 3 mg/kg): 54.4 ± 7.5 cmH2O
leak point pressure increase ([1]; 3 mg/kg): 1.5 ± 2.6 cmH2O
leak point pressure before drug administration ([1]; dose group 1 mg/kg): 44.2 ± 2.6 cmH2O and 43.2 ± 8.3 cmH2O
leak point pressure before drug administration ([1]; dose group 3 mg/kg): 52.9 ± 7.8 cmH2O
effect on leak point pressure [1]: showed no effect
